Test results published in ChEMBL document CHEMBL1909046, “DrugMatrix in vitro pharmacology data”.

What was measured:
B2 bradykinin receptor = biological target: T1, B2 bradykinin receptor (Homo sapiens, UniProt P30411); type: cell membranes, Membrane; settings: chem-1; further: in other assays of this panel Not Active means under 50% inhibition at 10 µM
T1 sequence (P30411 whole entry): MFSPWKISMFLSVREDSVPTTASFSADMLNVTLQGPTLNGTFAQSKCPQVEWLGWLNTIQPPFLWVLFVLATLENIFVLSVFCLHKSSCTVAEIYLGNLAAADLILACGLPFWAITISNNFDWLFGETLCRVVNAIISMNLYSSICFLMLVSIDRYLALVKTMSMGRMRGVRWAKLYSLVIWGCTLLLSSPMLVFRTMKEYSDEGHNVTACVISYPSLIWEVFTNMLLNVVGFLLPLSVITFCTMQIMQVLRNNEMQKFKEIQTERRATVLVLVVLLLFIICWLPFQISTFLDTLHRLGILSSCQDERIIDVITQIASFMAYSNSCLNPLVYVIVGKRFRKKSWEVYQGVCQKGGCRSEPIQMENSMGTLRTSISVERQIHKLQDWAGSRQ

[1] = biological target: C-C chemokine receptor type 5 (Homo sapiens, UniProt P51681); type: cell membranes, Membrane; settings: hek293; further: in other assays of this panel Not Active means under 50% inhibition at 10 µM
Progesterone receptor = biological target: T2, Progesterone receptor (Bos taurus, UniProt Q690N0); assay: DRUGMATRIX: Progesterone radioligand binding (ligand: [3H] R-5020); type: tissue-based, Uterus; settings: Not Active = under 50% inhibition at 10 µM
T2 sequence (Q690N0 whole entry): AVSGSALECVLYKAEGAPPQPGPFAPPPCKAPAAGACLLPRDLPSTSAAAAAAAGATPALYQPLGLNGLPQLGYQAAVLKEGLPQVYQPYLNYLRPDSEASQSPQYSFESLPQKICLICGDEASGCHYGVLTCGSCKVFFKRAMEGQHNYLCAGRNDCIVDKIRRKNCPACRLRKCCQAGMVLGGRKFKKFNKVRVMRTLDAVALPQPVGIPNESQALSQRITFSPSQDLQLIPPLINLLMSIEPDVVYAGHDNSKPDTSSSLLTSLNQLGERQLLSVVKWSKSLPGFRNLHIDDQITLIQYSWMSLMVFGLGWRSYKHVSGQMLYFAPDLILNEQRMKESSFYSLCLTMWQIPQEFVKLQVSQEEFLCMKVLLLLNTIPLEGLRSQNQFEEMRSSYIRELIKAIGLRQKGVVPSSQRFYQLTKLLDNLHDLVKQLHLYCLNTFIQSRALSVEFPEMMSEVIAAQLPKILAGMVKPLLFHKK

[2] = biological target: Mitogen-activated protein kinase 3 (Homo sapiens, UniProt P27361); assay: DRUGMATRIX: Protein Serine/Threonine Kinase, ERK1 enzyme inhibition (substrate: Myelin Basic Protein); parameters: species or system Escherichia coli; settings: Not Active = under 50% inhibition at 10 µM
Cytochrome P450 2D6 = Cytochrome P450 2D6 (Homo sapiens, UniProt P10635); further: in other assays of this panel Not Active means under 50% inhibition at 10 µM
Cytochrome P450 3A4 = Cytochrome P450 3A4 (Homo sapiens, UniProt P08684); settings: bti-tn-5b1-4; further: in other assays of this panel Not Active means under 50% inhibition at 10 µM
Estrogen receptor = biological target: T3, Estrogen receptor (Homo sapiens, UniProt P03372); settings: sf9; further: in other assays of this panel Not Active means under 50% inhibition at 10 µM
T3 sequence (P03372 whole entry): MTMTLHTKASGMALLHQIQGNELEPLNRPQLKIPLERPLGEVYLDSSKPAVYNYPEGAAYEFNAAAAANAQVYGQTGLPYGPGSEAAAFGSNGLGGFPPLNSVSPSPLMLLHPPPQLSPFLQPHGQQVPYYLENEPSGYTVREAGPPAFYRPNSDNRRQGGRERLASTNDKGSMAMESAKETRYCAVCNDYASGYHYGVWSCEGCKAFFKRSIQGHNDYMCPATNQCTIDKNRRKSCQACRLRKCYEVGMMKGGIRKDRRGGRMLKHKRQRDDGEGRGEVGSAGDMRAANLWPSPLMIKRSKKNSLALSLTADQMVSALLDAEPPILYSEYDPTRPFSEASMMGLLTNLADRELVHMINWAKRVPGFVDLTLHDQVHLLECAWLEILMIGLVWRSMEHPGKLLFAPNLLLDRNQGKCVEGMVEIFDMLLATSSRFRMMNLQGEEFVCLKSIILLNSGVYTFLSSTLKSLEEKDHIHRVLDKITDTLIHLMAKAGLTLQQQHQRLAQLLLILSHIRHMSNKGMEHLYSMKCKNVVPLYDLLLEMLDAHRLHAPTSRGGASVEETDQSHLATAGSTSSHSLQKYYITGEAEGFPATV

Androgen receptor = biological target: T4, Androgen receptor (Rattus norvegicus, UniProt P15207); further: in other assays of this panel Not Active means under 50% inhibition at 10 µM
T4 sequence (P15207 whole entry): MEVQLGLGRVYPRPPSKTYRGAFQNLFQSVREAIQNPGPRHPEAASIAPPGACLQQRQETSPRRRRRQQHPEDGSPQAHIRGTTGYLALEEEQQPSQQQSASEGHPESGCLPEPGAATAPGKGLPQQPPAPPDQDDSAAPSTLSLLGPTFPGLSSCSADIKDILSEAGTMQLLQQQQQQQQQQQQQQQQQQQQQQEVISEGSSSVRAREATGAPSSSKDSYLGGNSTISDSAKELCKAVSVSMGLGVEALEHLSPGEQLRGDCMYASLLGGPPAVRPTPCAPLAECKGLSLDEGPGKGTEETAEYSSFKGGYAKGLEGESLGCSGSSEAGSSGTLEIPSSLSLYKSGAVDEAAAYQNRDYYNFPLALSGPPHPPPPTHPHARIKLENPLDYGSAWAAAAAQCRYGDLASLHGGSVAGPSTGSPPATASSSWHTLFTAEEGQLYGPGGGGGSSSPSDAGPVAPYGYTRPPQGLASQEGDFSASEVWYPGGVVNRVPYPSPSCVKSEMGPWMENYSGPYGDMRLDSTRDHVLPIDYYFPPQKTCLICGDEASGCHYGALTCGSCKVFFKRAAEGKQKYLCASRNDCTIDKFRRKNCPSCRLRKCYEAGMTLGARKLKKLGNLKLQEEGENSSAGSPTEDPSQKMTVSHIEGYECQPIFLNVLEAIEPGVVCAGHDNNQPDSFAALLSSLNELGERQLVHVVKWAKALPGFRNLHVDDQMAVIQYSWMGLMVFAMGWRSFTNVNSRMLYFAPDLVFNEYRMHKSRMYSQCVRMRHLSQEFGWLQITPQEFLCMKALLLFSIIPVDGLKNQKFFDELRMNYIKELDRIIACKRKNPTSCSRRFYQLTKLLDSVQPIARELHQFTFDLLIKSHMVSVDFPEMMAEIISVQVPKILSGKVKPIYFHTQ

Cytochrome P450 2C9 = Cytochrome P450 2C9 (Homo sapiens, UniProt P11712); further: in other assays of this panel Not Active means under 50% inhibition at 10 µM
Chain of Cytochrome P450 2C9 (P11712 whole entry): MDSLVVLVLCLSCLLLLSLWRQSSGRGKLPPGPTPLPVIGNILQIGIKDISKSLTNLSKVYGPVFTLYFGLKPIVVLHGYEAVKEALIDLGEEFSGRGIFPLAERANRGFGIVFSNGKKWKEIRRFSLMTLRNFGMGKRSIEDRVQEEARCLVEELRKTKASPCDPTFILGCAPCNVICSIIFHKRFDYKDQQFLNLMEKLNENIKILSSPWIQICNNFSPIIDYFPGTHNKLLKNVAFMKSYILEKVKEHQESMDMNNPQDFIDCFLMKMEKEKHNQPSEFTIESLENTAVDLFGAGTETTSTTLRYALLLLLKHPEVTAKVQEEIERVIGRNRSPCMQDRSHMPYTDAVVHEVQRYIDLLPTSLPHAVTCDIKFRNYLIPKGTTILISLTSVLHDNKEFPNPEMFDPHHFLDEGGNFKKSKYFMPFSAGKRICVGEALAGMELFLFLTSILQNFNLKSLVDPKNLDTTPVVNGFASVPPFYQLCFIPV

Chain of C-C chemokine receptor type 5 (P51681 whole entry): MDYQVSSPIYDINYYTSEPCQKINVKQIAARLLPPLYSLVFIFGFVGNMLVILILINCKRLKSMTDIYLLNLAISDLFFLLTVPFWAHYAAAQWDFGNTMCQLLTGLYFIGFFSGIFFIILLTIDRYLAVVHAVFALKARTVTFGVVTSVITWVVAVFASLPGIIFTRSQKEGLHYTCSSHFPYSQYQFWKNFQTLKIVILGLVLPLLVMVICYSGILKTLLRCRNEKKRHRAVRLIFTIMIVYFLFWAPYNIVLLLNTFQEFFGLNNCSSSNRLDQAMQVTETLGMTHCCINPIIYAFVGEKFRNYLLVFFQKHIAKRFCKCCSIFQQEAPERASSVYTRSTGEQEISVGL
Chain of Cytochrome P450 3A4 (P08684 whole entry): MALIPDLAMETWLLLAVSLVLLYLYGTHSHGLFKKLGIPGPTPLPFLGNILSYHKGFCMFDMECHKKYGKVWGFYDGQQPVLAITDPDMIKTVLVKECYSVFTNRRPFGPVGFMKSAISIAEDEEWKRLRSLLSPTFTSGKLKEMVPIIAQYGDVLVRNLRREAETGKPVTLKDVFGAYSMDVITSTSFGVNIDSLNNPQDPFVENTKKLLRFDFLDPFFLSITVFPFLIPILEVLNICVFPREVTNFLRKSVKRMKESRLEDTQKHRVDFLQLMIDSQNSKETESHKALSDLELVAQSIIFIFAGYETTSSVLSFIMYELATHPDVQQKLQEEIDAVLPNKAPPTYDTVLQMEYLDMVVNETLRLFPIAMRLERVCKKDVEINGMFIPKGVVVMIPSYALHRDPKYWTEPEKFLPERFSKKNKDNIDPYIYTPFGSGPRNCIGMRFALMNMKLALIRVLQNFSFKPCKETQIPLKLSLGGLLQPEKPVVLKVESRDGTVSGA
Chain of Cytochrome P450 2D6 (P10635 whole entry): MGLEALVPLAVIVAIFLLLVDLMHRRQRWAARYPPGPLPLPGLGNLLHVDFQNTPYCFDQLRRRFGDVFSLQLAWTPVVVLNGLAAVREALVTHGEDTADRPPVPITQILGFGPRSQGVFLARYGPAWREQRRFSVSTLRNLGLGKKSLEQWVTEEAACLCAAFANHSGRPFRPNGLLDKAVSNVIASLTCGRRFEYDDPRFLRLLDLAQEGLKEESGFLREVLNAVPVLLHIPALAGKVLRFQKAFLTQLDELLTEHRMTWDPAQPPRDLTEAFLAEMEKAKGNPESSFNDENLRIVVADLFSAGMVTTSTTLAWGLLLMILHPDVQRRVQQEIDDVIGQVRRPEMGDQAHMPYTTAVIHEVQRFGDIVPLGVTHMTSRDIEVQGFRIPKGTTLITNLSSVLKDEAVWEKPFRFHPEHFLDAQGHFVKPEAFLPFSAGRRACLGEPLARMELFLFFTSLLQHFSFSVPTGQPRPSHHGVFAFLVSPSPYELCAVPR
Chain of Mitogen-activated protein kinase 3 (P27361 whole entry): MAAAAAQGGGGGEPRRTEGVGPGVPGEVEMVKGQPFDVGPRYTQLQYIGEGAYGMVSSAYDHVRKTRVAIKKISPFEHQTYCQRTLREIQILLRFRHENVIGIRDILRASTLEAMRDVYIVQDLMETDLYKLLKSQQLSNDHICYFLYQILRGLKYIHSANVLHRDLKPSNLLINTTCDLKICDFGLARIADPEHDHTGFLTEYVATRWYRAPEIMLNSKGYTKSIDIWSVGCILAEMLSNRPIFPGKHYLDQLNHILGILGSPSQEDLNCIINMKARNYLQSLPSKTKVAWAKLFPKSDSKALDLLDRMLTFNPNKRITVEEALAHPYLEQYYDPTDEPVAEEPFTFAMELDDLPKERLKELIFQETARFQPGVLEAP

Compound	IC50 (B2 bradykinin receptor)	IC50 [1]	IC50 (Progesterone receptor)	IC50 [2]	IC50 (Cytochrome P450 2D6) [nM]	IC50 (Cytochrome P450 3A4)	Ki (Cytochrome P450 3A4)	IC50 (Estrogen receptor)	IC50 (Androgen receptor)	IC50 (Cytochrome P450 2C9) [nM]	IC50 (Progesterone receptor; read-out: IC50) [nM]	Ki (Progesterone receptor; read-out: Ki) [nM]	Ki (B2 bradykinin receptor)	Ki [1]	Ki (Progesterone receptor)	Ki [2]	Ki (Androgen receptor)	Ki (Estrogen receptor)
CCCN1C[C@H](CSC)C[C@@H]2c3cccc4[nH]cc(c34)C[C@H]21 [PERGOLIDE]	Not Active	Not Active	Not Active	Not Active	200	Not Active	Not Active	Not Active										
CN(C)C(=O)Oc1cc(OC(=O)N(C)C)cc(C(O)CNC(C)(C)C)c1 (stereo not given) [BAMBUTEROL]	Not Active	Not Active	Not Active	Not Active	2000	Not Active	Not Active	Not Active	Not Active									
Cc1cc(C(C#N)c2ccc(Cl)cc2)c(Cl)cc1NC(=O)c1cc(I)cc(I)c1O (stereo not given) [CLOSANTEL]	Not Active	Not Active	Not Active	Not Active				Not Active		2000								
Cc1ccc(-c2cc(C(F)(F)F)nn2-c2ccc(S(N)(=O)=O)cc2)cc1 [CELECOXIB]	Not Active	Not Active		Not Active	1000	Not Active	Not Active	Not Active	Not Active		18100	2360						
CCCCc1nc(Cl)c(CO)n1Cc1ccc(-c2ccccc2-c2nnn[nH]2)cc1 [LOSARTAN]	Not Active	Not Active	Not Active	Not Active		Not Active	Not Active			2880								
CN(Cc1ccc(C(C)(C)C)cc1)Cc1cccc2ccccc12 [BUTENAFINE]	Not Active	Not Active	Not Active	Not Active	300	Not Active	Not Active	Not Active										
Cc1ccc(N(CC2=NCCN2)c2cccc(O)c2)cc1 [PHENTOLAMINE]	Not Active	Not Active	Not Active	Not Active	10000			Not Active										
CC(C)[C@@]1(NC(=O)[C@@H]2C[C@@H]3c4cccc5[nH]cc(c45)C[C@H]3N(C)C2)O[C@@]2(O)[C@@H]3CCCN3C(=O)[C@H](Cc3ccccc3)N2C1=O.CS(=O)(=O)O [DIHYDROERGOCRISTINE MESYLATE]	Not Active	Not Active	Not Active	Not Active				Not Active		3000								
C1CCC(C(CC2CCCCN2)C2CCCCC2)CC1 (stereo not given) [PERHEXILINE]	Not Active	Not Active	Not Active	Not Active	941	Not Active	Not Active	Not Active	Not Active									
LEAD (II) ACETATE	Not Active	Not Active	Not Active	Not Active		Not Active	Not Active	Not Active	Not Active				Not Active	Not Active	Not Active	Not Active	Not Active	Not Active
CC1=C2C(=CO[C@H](C)[C@H]2C)C(O)=C(C(=O)O)C1=O [CITRININ]	Not Active	Not Active	Not Active	Not Active		Not Active	Not Active	Not Active	Not Active									
Nc1ncn([C@@H]2O[C@H](CO)[C@@H](O)[C@H]2O)c(=O)n1 [AZACITIDINE]	Not Active	Not Active	Not Active	Not Active		Not Active	Not Active	Not Active	Not Active									
LIPOPOLYSACCHARIDE E. COLI O55:B5	Not Active	Not Active	Not Active	Not Active		Not Active	Not Active	Not Active	Not Active				Not Active	Not Active	Not Active	Not Active	Not Active	Not Active
CCCCN1CCCC[C@H]1C(=O)Nc1c(C)cccc1C [LEVOBUPIVACAINE]	Not Active	Not Active	Not Active	Not Active	196	Not Active	Not Active	Not Active	Not Active									
Cc1onc(O)c1CC(N)C(=O)O (racemic) [(R,S)-AMPA]	Not Active	Not Active	Not Active	Not Active		Not Active	Not Active	Not Active	Not Active									
